Results reported in patent publication US20230295171A1, “FUSED HETEROAROMATIC PYRROLIDINONES” (Calithera Biosciences, Inc., priority 2009, published 2023).

These compounds were tested against SYK (Homo sapiens (Human), UniProt P43405) (assay: SYK inhibition assay (phosphorylation of FAM-labeled SYK-specific substrate, Caliper LC-3000)). Conditions: SYK kinase domain (residues 356-635); 5FAM-KKKKEEIYFFFG-NH2 substrate, ATP, 60 min at RT; pIC50 = -log(IC50), IC50 molar.
Type: biochemical
Experimental: SYK protein is prepared from cDNA encoding human spleen tyrosine kinase and is expressed in insect cells using a baculovirus expression vector. […] The recombinant bacmid DNA is isolated and transfected into Sf9 insect cells. Recombinant virus is harvested 72 h after transfection. High titer viral stock is prepared by infecting Sf9 cells at a multiplicity of infection (MOI) of approximately 0.01. A suspension of Sf9 cells (10 L) is infected with recombinant virus (MOI=5) and is incubated in a Wave Bioreactor (GE-Healthcare) for 48 h. The cells are harvested and stored at −80° C.
To purify the expressed protein, the frozen Sf9 cells (10 L) are broken into small (<1 cm) particles and suspended in a lysis buffer (300 mL) containing 20 mM Tris (pH 7.6), 0.25 mM TCEP, 100 mM NaCl, 5% glycerol and a protease inhibitor. The suspension is stirred at RT until completely thawed, lysed an additional 2-4 min on a rotary blade homogenizer, and then centrifuged at 4200 g for 1 h. Following centrifugation, the supernatant is poured through cheese cloth and combined with a nickel chelating resin (Probond Resin™, Invitrogen) which is pre-equilibrated in a wash buffer containing 10 mM Tris (pH 7.6), 0.25 mM TCEP, 300 mM NaCl, 5% glycerol, and 20 mM imidazole. The mixture is agitated for 3 h in a cold room and then centrifuged at 900 g for 10 min. The resin is dispersed in wash buffer (50 mL), centrifuged for 10 min at 900 g, re-dispersed in a small amount of wash buffer (5 mL), and then pour into a disposable Poly-Prep chromatography column, through which wash buffer is passed by gravity until no protein is observed in coomassie buffer (about 120 mL of wash buffer). An elution buffer (30 mL) containing 10 mM HEPES (pH 7.4), 150 mM NaCl, 10% glycerol, 5 mM DTT, and 400 mM imidazole is used to elute the SYK protein from the resin. The eluate is concentrated (5 mL) and further purified on a Superdex 200 column (1.2 mL/min for 160 min, 10 mM HEPES (pH 7.4), 10 mM NaCl, 10 mM MgCl, 0.1 mM EDTA, and 0.25 mM TCEP). The chromatographed fractions are run on SDS-PAGE and the requisite fractions are pooled and concentrated. Final delivery buffer is 10 mM HEPES (pH 7.4), 10 mM Methione, 150 mM NaCl, 10% glycerol, 5 mM DTT.
SYK inhibition is determined using a black 384 well plate format in buffer containing 50 mM HEPES, 10 mM NaCl, 10 mM MgCl2, 0.2 mM EDTA, 0.01% EDA (Brij® 35), 1 mM DTT, and 0.1 mg/ml BSA at pH 7.3. Each test compound is prepared in DMSO using 2-fold serial dilutions for 11 data points, which are added to the buffer so that each dilution contains 3% DMSO. […] The reaction mixture is incubated at RT for 60 min, and quenched by adding 50 mM Hepes, 30 mM EDTA, 0.1% Triton X-100 (pH 7.3). To quantify the fluorescent-labeled substrate and product following reaction, the test plate is loaded on a Caliper LC-3000, which measures percent of conversion by microfluidic-based separation. Corresponding IC50 values are calculated by non-linear curve fitting of the compound concentrations and percent of inhibition to the standard IC50 equation and reported as pIC50, i.e., −log(IC50), where IC50 is molar concentration.

First: Cc1cccc(Nc2nc(N[C@@H]3CCCC[C@@H]3O)nc3c2C(=O)NC3)c1 (relative stereo) [Example 11, cis-2-(2-Hydroxycyclohexylamino)-4-(m-tolylamino)-6,7-dihydro-5H-pyrrolo[3,4-d]pyrimidin-5-one]
Second: Cc1cccc(Nc2nc(N[C@H]3COCC[C@H]3N)cc3c2C(=O)NC3)c1 [Example 86, 6-((3R,4R)-4-Aminotetrahydro-2H-pyran-3-ylamino)-4-(m-tolylamino)-1H-pyrrolo[3,4-c]pyridin-3(2H)-one]
The “SYK Inhibition (pIC50)” value of the first is higher: 5.9 for the first, 5.6 for the second.

First: Cc1cccc(Nc2nc(N[C@@H]3COC[C@@H]3N)cc3c2C(=O)NC3)c1 (relative stereo) [Example 58, 6-(cis-4-Aminotetrahydrofuran-3-ylamino)-4-(m-tolylamino)-1H-pyrrolo[3,4-c]pyridin-3(2H)-one]
Second: Cn1cc(-c2nc(N[C@@H]3CC(F)(F)C[C@@H]3N)c(F)c3c2C(=O)NC3)cn1 (relative stereo) [Example 66, 6-(cis-2-Amino-4,4-difluorocyclopentylamino)-7-fluoro-4-(1-methyl-1H-pyrazol-4-yl)-1H-pyrrolo[3,4-c]pyridin-3(2H)-one]
The “SYK Inhibition (pIC50)” value of the first is lower: 5.8 for the first, 6.3 for the second.

Going from `Cn1cc(-c2nc(N[C@@H]3CCCC(F)(F)[C@@H]3N)c(F)c3c2C(=O)NC3)cn1` (relative stereo) [Example 67, 6-(cis-2-Amino-3,3-difluorocyclohexylamino)-7-fluoro-4-(1-methyl-1H-pyrazol-4-yl)-1H-pyrrolo[3,4-c]pyridin-3(2H)-one] to `N[C@@H]1[C@H](Nc2nc(-c3cnn(C4CC4)c3)c3c(c2F)CNC3=O)CCCC1(F)F` (relative stereo) [Example 69, 6-(cis-2-amino-3,3-difluorocyclohexylamino)-4-(1-cyclopropyl-1H-pyrazol-4-yl)-7-fluoro-1H-pyrrolo[3,4-c]pyridin-3(2H)-one], the “SYK Inhibition (pIC50)” value falls from 7.4 to 6.8.

In the case of `N[C@@H]1[C@H](Nc2nc(-c3cnn(C(F)F)c3)c3c(c2F)CNC3=O)CCCC1(F)F` (relative stereo) [Example 68, 6-(cis-2-Amino-3,3-difluorocyclohexylamino)-4-(1-(difluoromethyl)-1H-pyrazol-4-yl)-7-fluoro-1H-pyrrolo[3,4-c]pyridin-3(2H)-one], the “SYK Inhibition (pIC50)” value is reported as 7.0.
